Reference: patent US10040804B2, “Compounds targeting proteins, compositions, methods, and uses thereof” (BioTheryX, Inc., priority 2016, dated 2018)
Each block holds one compound with its values, some of them ahead of it.

Experiments:
IL-6 = IL-6 expression in LPS stimulated PBMCs (Meso Scale); type: cell-based, human; conditions: Homo sapiens, PBMC, LPS-stimulated PBMCs; for inhibition at 1 µM: compound concentration 1 μM; for inhibition at 0.1 µM: compound concentration 0.1 μM; for inhibition at 10 µM: compound concentration 10 μM
Procedure, shortened: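 Thawed human PBMCs at 200,000 cells/well in RPMI-1640/10% FBS were pretreated with compound or DMSO for 1 h, then stimulated with 100 ng/mL LPS for 18–24 h. Supernatant IL-6 was measured by Meso Scale assay and expressed as % of LPS-induced activity.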

H1048 cells = test: H1048 cell viability (CellTiter-Glo); type: cell-based; conditions: Homo sapiens, NCI-H1048, 72 h, H1048, 3 days, DMSO = 100.00; for viability at 1 µM: 1 μM compound concentration; for viability at 10 µM: 10 μM compound concentration
Experimental: FIG. 10A is a graph showing antiproliferative activity in H1048 (SCLC) cells. FIG. 10B is a graph showing antiproliferative activity in Molm-13 (AML) cells. In FIGS. 10A and 10B, the cells were incubated for 72 hrs with Compound 9 at the indicated concentrations or DMSO. Compound activity was measured based on the signal from remaining viable cells.
(§1) Molm-13 cells were cultivated in RPMI-1640 (10% FBS/1% pen-strep) and were plated in white walled 96-well plates at 20,000 cells/well. H1048 cells were cultured in DMEM:F12 media supplemented with 5% fetal bovine serum, insulin, transferrin, sodium selenite, hydrocortisone, β-estradiol, penicillin and streptomycin, and were plated in white walled 96-well plates at 20,000 cells/well. MDA-MB-231 cells were cultured in DMEM media supplemented with 10% fetal bovine serum, penicillin and streptomycin, and were plated in white walled 96-well plates at 10,000 cells/well. Cells were treated with compound or DMSO (0.1%, control) and the cultures were incubated for 3 days at 37° C. and 5% CO2. Following the incubation period, 100 μL of CellTiterGlow (CTG) reagent (CellTiter-Glo® Luminescent Cell Viability Assay, Promega (Madison, Wis.)) was added to each well. Following a 10 min incubation with shaking, luminescence was measured using a Victor Wallac Luminometer.

IL-1β = IL-1β expression in LPS stimulated PBMCs (Meso Scale); type: cell-based, human; conditions: Homo sapiens, PBMC; for inhibition at 1 µM: compound concentration 1 μM; for inhibition at 0.1 µM: compound concentration 0.1 μM; for inhibition at 10 µM: compound concentration 10 μM
Procedure, shortened: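 Human PBMCs (200,000 cells/well in RPMI-1640/10% FBS) were pretreated with compound for 1 h, then stimulated with 100 ng/mL LPS for 18-24 h. IL-1β in supernatant was measured by Meso Scale assay. Activity is expressed as percentage of LPS-induced level, with DMSO-treated wells as negative control.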

MDA-MB-231 cells = test: MDA-MB-231 cell viability (CellTiter-Glo); type: cell-based; conditions: Homo sapiens, 72 h, 3 days, DMSO = 100.00; for viability at 1 µM: 1 μM compound concentration; for viability at 10 µM: 10 μM compound concentration
Experimental: as §1

IL-2 = test: anti-CD3-induced IL-2 secretion in PBMCs; type: cell-based; conditions: Homo sapiens, PBMC, anti-CD3 stimulated PBMCs, 24 h, DMSO = 1.0, read-out: Fold Change IL-2; for fold induction at 1 µM: compound concentration 1 μM; for fold induction at 0.1 µM: compound concentration 0.1 μM; for fold induction at 10 µM: compound concentration 10 μM
Experimental: FIGS. 4 and 9D are graphs showing anti-CD3-induced IL-2 secretion in PBMCs. 1 ug/mL anti-CD3 (OKT-3) antibody in PBS were coated onto 96-well plates overnight at 4° C. Approximately 550,000 PBMCs were added to each well, followed by addition of DMSO only, Compound 1-8 at 10 μM (FIG. 4) or Compound 9 at 0.1 μM or 1 μM (FIG. 9D), or 10 μM lenalidomide (rev). Induction was measured after 24 h as fold difference from the DMSO stimulated control.
For the IL-2 analysis, 96 well plates were precoated with 1 ug/mL anti-human CD3 antibody (OKT3, eBioscience Inc.). After washing with PBS, compounds were added to the wells (50 μL/well) followed by PBMCs diluted at 3-4 million cells/mL (150 μL/well). Plates were incubated for 24 h and the supernatants collected for Mesoscale IL-2 analysis.
Compound activity was measured as fold difference from the DMSO control. IL-1-beta activity is shown in FIG. 1; IL-6 activity is shown in FIG. 2; TNF-α activity is shown in FIG. 3; and IL-2 activity is shown in FIG. 4.

TNF-α = TNF-α expression in LPS stimulated PBMCs (Meso Scale); type: cell-based, human; conditions: Homo sapiens, PBMC; for inhibition at 1 µM: compound concentration 1 μM; for inhibition at 0.1 µM: compound concentration 0.1 μM; for inhibition at 10 µM: compound concentration 10 μM
Procedure, shortened: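 Thawed primary human PBMCs, 200,000 cells/well in RPMI-1640/10% FBS, pretreated with compound 1 h, then stimulated with 100 ng/mL LPS for 18-24 h. Supernatant TNF-α measured by Meso Scale assay; activity expressed as percentage of LPS-induced level, DMSO as negative control.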

GSPT1 = biological target: T1, GSPT1 (Homo sapiens, UniProt P15170); test: GSPT1 protein levels by Western Blot analysis; type: cell-based; conditions: DMSO = 100.00; for remaining activity at 0.1 µM: 100 nM compound concentration; for remaining activity at 1 µM: 1 μM compound concentration
T1 construct: Whole cell extracts were prepared using RIPA buffer according to manufacturer's protocol (Pierce); endogenous in cells
Experimental: Cells were lysed using RIPA Buffer (Pierce) and a Western Blot analysis was performed using anti-GSPT1 and anti-β-actin antibodies. FIG. 11B is a graph showing the expression levels of GSPT1 protein in Molm-13 (AML) cells. Protein expression levels were measured using the LiCor Odyssey instrumentation and methods.
Western Blot Protocol: Cell lines were grown in RPMI 1640 supplemented with streptomycin, penicillin and 10% fetal bovine serum.
Cells were cultured at approximately 10^6 cells per mL and incubated in DMSO or each of the indicated compounds for 6-8 h. Whole cell extracts were prepared using RIPA buffer according to manufacturer's protocol (Pierce). Briefly, 2×10^6 cells were washed once in PBS, the cell pellets were resuspended in RIPA buffer and allowed to incubate for 15 minutes on ice. Cells debris was removed by centrifugation and the cleared whole cell lysates were transferred to new tubes for further analysis.
For Western blot analysis, whole cell protein extracts were separated on 4-12% SDS-polyacrylamide gels, transferred to nitrocellulose, and probed with the indicated primary antibodies. Membranes were subsequently washed and probed with the appropriate IRDye secondary antibodies (LI-COR). The signal was detected using the Odyssey Imaging System (LI-COR).
GSPT1: Rabbit anti-GSPT1 was obtained from Abcam, ab126090 (Cambridge, Eng.)

Molm-13 cells = test: Molm-13 cell viability (CellTiter-Glo); type: cell-based; conditions: Homo sapiens, MOLM-13, read-out: % Inhibition (MOLM-13 Cell Viability); for cytotoxicity at 2.8 µM: compound concentration 2.8 μM
Procedure, shortened: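 Molm-13 (RPMI-1640, 10% FBS) and H1048 (DMEM:F12, 5% FBS with supplements) plated at 20,000 cells/well, treated with compound or 0.1% DMSO for 3 days at 37° C., 5% CO2. Viability read by CellTiter-Glo luminescence after 10 min.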

T1 sequence (P15170 whole entry): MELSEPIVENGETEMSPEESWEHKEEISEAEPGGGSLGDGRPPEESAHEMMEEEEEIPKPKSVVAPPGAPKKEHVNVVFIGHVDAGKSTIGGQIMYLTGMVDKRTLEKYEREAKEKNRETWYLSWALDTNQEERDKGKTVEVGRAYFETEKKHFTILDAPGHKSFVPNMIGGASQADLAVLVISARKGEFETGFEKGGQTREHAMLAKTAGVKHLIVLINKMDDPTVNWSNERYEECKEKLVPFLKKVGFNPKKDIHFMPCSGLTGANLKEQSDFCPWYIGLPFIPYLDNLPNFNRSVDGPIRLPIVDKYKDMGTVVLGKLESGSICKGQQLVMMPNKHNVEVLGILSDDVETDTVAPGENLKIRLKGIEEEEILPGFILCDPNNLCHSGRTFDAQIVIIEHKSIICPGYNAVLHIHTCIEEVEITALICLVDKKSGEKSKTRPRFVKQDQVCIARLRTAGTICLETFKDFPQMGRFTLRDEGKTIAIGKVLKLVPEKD
T1 sequence (Q96SW2 whole entry, further chain): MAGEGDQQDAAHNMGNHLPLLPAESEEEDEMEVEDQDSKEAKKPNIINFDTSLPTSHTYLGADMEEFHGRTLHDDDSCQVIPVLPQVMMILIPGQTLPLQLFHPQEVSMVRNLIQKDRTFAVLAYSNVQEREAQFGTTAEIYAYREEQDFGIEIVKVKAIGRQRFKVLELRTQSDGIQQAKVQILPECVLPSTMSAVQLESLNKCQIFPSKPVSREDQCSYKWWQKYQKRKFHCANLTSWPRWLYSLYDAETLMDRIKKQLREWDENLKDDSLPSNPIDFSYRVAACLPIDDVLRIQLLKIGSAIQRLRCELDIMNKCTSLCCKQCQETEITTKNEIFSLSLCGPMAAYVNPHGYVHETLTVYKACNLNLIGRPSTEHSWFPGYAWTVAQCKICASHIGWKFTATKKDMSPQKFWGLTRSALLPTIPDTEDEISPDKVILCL
T1 sequence (Q16531 whole entry partner): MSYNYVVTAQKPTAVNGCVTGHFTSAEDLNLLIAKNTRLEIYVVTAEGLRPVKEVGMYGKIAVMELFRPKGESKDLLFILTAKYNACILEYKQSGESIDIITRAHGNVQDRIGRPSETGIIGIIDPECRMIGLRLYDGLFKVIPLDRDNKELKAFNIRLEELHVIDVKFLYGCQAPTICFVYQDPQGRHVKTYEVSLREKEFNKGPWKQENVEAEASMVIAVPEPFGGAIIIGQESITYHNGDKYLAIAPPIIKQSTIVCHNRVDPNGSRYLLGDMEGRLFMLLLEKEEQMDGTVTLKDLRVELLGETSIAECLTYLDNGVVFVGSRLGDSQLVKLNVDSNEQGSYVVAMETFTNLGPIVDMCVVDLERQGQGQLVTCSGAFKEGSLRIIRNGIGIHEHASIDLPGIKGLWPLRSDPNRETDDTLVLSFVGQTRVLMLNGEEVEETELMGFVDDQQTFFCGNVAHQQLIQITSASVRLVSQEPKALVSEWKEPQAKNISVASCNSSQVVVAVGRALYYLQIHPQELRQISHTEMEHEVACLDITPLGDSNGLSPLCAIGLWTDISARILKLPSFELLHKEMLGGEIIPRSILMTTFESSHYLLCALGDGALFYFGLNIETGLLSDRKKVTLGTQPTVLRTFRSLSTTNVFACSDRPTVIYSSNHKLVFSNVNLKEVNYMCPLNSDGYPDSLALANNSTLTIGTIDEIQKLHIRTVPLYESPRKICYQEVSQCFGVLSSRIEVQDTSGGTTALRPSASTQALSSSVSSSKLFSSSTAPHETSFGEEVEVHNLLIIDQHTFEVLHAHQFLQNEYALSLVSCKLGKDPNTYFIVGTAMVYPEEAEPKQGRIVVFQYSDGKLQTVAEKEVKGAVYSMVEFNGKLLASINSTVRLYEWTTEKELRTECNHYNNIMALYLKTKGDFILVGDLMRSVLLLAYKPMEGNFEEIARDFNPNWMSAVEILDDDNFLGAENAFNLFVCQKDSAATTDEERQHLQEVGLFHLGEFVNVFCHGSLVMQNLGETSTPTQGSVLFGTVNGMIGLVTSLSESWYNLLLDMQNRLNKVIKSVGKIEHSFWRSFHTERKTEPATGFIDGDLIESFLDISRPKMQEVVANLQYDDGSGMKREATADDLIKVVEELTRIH

- remaining activity at 0.1 µM (GSPT1): 131%
- remaining activity at 1 µM (GSPT1): 108%
SMILES: Cc1ccc(CC(=O)NCc2scc3c2CN([C@H]2CCCC(=O)NC2=O)C3=O)cc1Cl [Compound 31, (S)-2-(3-Chloro-4-methylphenyl)-N-((5-(2,7-dioxoazepan-3-yl)-4-oxo-5,6-dihydro-4H-thieno[3,4-c]pyrrol-1-yl)methyl)acetamide]
- inhibition at 1 µM (IL-6): 40%
- viability at 1 µM (H1048 cells): 84.3%
- viability at 10 µM (H1048 cells): 26.8%
- inhibition at 1 µM (IL-1β): 76%
- viability at 1 µM (MDA-MB-231 cells): 103%
- viability at 10 µM (MDA-MB-231 cells): 107%
- fold induction at 1 µM (IL-2): 1.7
- inhibition at 1 µM (TNF-α): 80%
- cytotoxicity at 10 µM (Molm-13 cells; compound concentration 10 μM): 12%

- remaining activity at 0.1 µM (GSPT1): 5.9%
- remaining activity at 1 µM (GSPT1): 5.5%
SMILES: Cc1ccc(CNC(=O)NCc2scc3c2CN(C2CCC(=O)NC2=O)C3=O)cc1Cl (centres unmarked) [Compound 33, 1-(3-Chloro-4-methylbenzyl)-3-((5-(2,6-dioxopiperidin-3-yl)-4-oxo-5,6-dihydro-4H-thieno[3,4-c]pyrrol-1-yl)methyl)urea]
- inhibition at 0.1 µM (IL-6): 99%
- viability at 1 µM (H1048 cells): 8.76%
- viability at 10 µM (H1048 cells): 8.21%
- inhibition at 0.1 µM (IL-1β): 95%
- viability at 1 µM (MDA-MB-231 cells): 21.7%
- viability at 10 µM (MDA-MB-231 cells): 19.8%
- fold induction at 0.1 µM (IL-2): 0.3
- inhibition at 0.1 µM (TNF-α): 95%
- cytotoxicity at 0.003 µM (Molm-13 cells; compound concentration 0.003 μM): 50%

More lines, now with the values behind:

SMILES: Cc1ccc(NC(=O)NCc2scc3c2CN([C@H]2CCCC(=O)NC2=O)C3=O)cc1Cl [Compound 30, (S)-1-(3-Chloro-4-methylphenyl)-3-((5-(2,7-dioxoazepan-3-yl)-4-oxo-5,6-dihydro-4H-thieno[3,4-c]pyrrol-1-yl)methyl)urea]
- inhibition at 1 µM (IL-6): 98%
- viability at 1 µM (H1048 cells): 8.55%
- viability at 10 µM (H1048 cells): 8.34%
- inhibition at 1 µM (IL-1β): 81%
- viability at 1 µM (MDA-MB-231 cells): 52.9%
- viability at 10 µM (MDA-MB-231 cells): 26.3%
- fold induction at 1 µM (IL-2): 0.4
- inhibition at 1 µM (TNF-α): 84%
- remaining activity at 0.1 µM (GSPT1): 42.7%
- remaining activity at 1 µM (GSPT1): 5.28%
- cytotoxicity at 1 µM (Molm-13 cells; compound concentration 1 μM): 50%

SMILES: O=C1CCC[C@H](N2Cc3c(csc3CNC(=O)Nc3ccc(C(F)(F)F)c(Cl)c3)C2=O)C(=O)N1 [Compound 32, (S)-1-(3-Chloro-4-(trifluoromethyl)phenyl)-3-((5-(2,7-dioxoazepan-3-yl)-4-oxo-5,6-dihydro-4H-thieno[3,4-c]pyrrol-1-yl)methyl)urea]
- inhibition at 0.1 µM (IL-6): 65%
- viability at 1 µM (H1048 cells): 10.6%
- viability at 10 µM (H1048 cells): 10.8%
- inhibition at 0.1 µM (IL-1β): 67%
- viability at 1 µM (MDA-MB-231 cells): 91.2%
- viability at 10 µM (MDA-MB-231 cells): 44.3%
- fold induction at 0.1 µM (IL-2): 0.8
- inhibition at 0.1 µM (TNF-α): 62%
- remaining activity at 0.1 µM (GSPT1): 61.7%
- remaining activity at 1 µM (GSPT1): 29.3%
- cytotoxicity at 0.5 µM (Molm-13 cells; compound concentration 0.5 μM): 25%

SMILES: Cc1cnc(Nc2ccc(OCCCNCC(=O)NCc3scc4c3CN(C3CCC(=O)NC3=O)C4=O)cc2)nc1Nc1cccc(S(=O)(=O)NC(C)(C)C)c1 (centres unmarked) [Compound 59, 2-((3-(4-((4-((3-(N-(tert-Butyl)sulfamoyl)phenyl)amino)-5-methylpyrimidin-2-yl)amino)phenoxy)propyl)amino)-N-((5-(2,6-dioxopiperidin-3-yl)-4-oxo-5,6-dihydro-4H-thieno[3,4-c]pyrrol-1-yl)methyl)acetamide]
- inhibition at 10 µM (IL-6): 10%
- inhibition at 10 µM (IL-1β): 45%
- fold induction at 10 µM (IL-2): 1.8
- inhibition at 10 µM (TNF-α): 81%
- cytotoxicity at 2.8 µM (Molm-13 cells): 50%

SMILES: Cc1sc2c(c1C)C(c1ccc(Cl)cc1)=N[C@@H](CC(=O)NCCCCNCC(=O)NCc1scc3c1CN(C1CCC(=O)NC1=O)C3=O)c1nnc(C)n1-2 (stereo partly drawn) [Compound 60, 2-((S)-4-(4-Chlorophenyl)-2,3,9-trimethyl-6H-thieno[3,2-f][1,2,4]triazolo[4,3-a][1,4]diazepin-6-yl)-N-(4-((2-(((5-(2,6-dioxopiperidin-3-yl)-4-oxo-5,6-dihydro-4H-thieno[3,4-c]pyrrol-1-yl)methyl)amino)-2-oxoethyl)amino)butyl)acetamide]
- inhibition at 1 µM (IL-6): 95%
- inhibition at 1 µM (IL-1β): 91%
- fold induction at 1 µM (IL-2): 0.2
- inhibition at 1 µM (TNF-α): 93%
- cytotoxicity at 0.2 µM (Molm-13 cells; compound concentration 0.2 μM): 50%

SMILES: Cc1cnc(Nc2ccc(OCCCNC(=O)NCc3scc4c3CN([C@H]3CCCC(=O)NC3=O)C4=O)cc2)nc1Nc1cccc(S(=O)(=O)NC(C)(C)C)c1 [Compound 61, (S)—N-(tert-Butyl)-3-((2-((4-(3-(3-((5-(2,7-dioxoazepan-3-yl)-4-oxo-5,6-dihydro-4H-thieno[3,4-c]pyrrol-1-yl)methyl)ureido)propoxy)phenyl)amino)-5-methylpyrimidin-4-yl)amino)benzenesulfonamide]
- inhibition at 10 µM (IL-6): 11%
- inhibition at 10 µM (IL-1β): 53%
- fold induction at 10 µM (IL-2): 0.8
- inhibition at 10 µM (TNF-α): 66%
- cytotoxicity at 2.8 µM (Molm-13 cells): 50%
